≈ marks a conversion by molar mass, not a printed value. Where two headings read alike, the source gives them in different places.
Columns and labels:
[1] = system: nine gram-positive organisms and the yeast/fungus Candida; assay: MIC, broth dilution, over all organisms (Examples I/II); assay type: cell-based
Method: (§1) In order to establish comparative bactericidal and fungicidal results with homologous fatty acids, a series of experiments was performed with thirty straight-chain fatty acids and derivatives thereof. Eight different gram-negative and twelve different gram-positive organisms, representing a very broad spectrum of organisms, were used in these experiments including the fungus Candida (a yeast). Additionally, fatty acids were chosen to show the effects of saturation versus unsaturation, in the fatty acid claim. Standard solutions of the fatty acids and their derivatives were prepared by first dissolving the weighed compounds in 1 to 2 ml of 95% ethanol and immediately pouring this solution into 200 ml of Tripticase Soy Broth. These lipid compounds which are insoluble in water and broth precipitated into very small crystals or droplets. The tubes containing the suspension were warmed to approximately 70° C and were then placed in an ultrasonic tank for further solubilization of the lipid derivatives.
(§2) Standard solutions (or suspensions) at 1,000 μg/ml were twofold serially diluted with additional broth to a concentration of 125 μg/ml. A 4-ml amount of each dilution was then quickly, and with constant agitation, dispensed into appropriately labeled screw-capped glass tubes (16 by 125 mm). The tubes were sterilized with steam at 15 psi for 15 minutes. After sterilization, all tubes were cooled and incubated overnight at 35° C to insure sterility.
(§3) All compounds were compared on a molar (micromoles/milliliter) rather than on a mass basis. In the following lists of organisms used, those followed by a parenthetical number are registered with the American Type Culture Collection (ATCC); the remainder were isolates from Providence Hospital or Northland Laboratory.
Staphylococcus aureus, S. epidermidis, beta-hemolytic streptococci (Group A and non-group A), group D streptococcus, Bacillus subtilis (6051), Sarcina lutea (9431), Micrococcus sp., Candida albicans, Nocardia asteroids (3308), Corynebacterium sp. (10700), and pneumococcus (63001).
(§4) One drop (0.04 ± 0.01 ml) of an 18-hr broth culture containing 10^7 and 10^9 organisms/ml was added to each dilution of the test compound, as well as to a tube of plain broth which served as the positive control. After inoculation, the contents of each tube were well mixed, and the tubes were incubated at 35° C in a 5% carbon dioxide + […] atmosphere.
(§5) The MIC is defined as the lowest concentration of compound at which no […] evidence of growth was observed when turbidity of the inoculated broth dilutions was compared with control tubes. […] Only a one-tube difference between the bactericidal and bacteriostatic concentrations was normally observed.
Table 5 presents a comparison of the C10 and C12 free acids and their glyceryl derivatives, and Table 6 gives the corresponding ranges of activity.
(§6) Standard solutions (1000 μg/ml) of three fatty acids and polyglycerol esters thereof were prepared as described in Example I. Also sucrose esters were prepared by transferring the weighed compounds (0.2 gm. dissolved in 1 ml absolute methanol) into 200 ml of sterile Trypticase Soy Broth (TSB). These standard solutions (1000 μg/ml) were twofold serially diluted with additional sterile broth to a concentration of 125 μg/ml. A 3.8 aliquot of each dilution was asceptically delivered into sterile screw-capped culture tubes. All tubes were incubated overnight at 36° C to insure sterility. The microorganisms used in this example were the same as those used in Example I.
The inoculum, 0.05 ml of an 13-24 hour TSB culture (approximately 10^9 organisms/ml) was asceptically delivered into all dilutions of the compounds, mixed well, and incubated at 36° C. […]

S. pyogenes = assay: Growth curve by optical density (Example IV, FIG. 3); assay type: cell-based, streptococcus pyogenes; settings: 24 hours
Method: To a series of containers is added 40 ml of Trypticase Soy Broth and 0.5 ml of streptococcus pyogenes (10^8 organisms/ml). To respective containers are added the following: (1) 10 μg of glycerol 1-mono-laurinand 10 μg of glycerol dilaurin; (2) 5 μg of glycerol 1-mono-laurin and 5 μg of glycerol dilaurin; (3) 10 μg of glycerol 1-mono-laurin; and (4) 5 μg of glycerol 1-mono-laurin; and (5) a control without any additives. The rate of growth of the S. pyogenes was followed for 24 hours at 6 hour intervals by reading the optical density of the cultures at […] in a spectrophotometer.

Aspergillus niger = assay: MIC, agar dilution method (Example XVI); assay type: cell-based; settings: Aspergillus niger
Source text: (§7) In a manner similar to that described in Example V, the effectiveness of certain food-grade microbecides are compared with mono-esters in an agar dilution method. The very favorable results may be noted from Table 19.

Bacillus subtilis = assay: MIC, agar dilution method (Example XVI); assay type: cell-based; settings: Bacillus subtilis
Source text: as §7

Canadida albicans = assay: MIC, agar dilution method (Example XVI); assay type: cell-based
Source text: as §7

Escherichia coli = assay: MIC, agar dilution method (Example XVI); assay type: cell-based; settings: Escherichia coli
Source text: as §7

Pseudomonas aeruginosa = assay: MIC, agar dilution method (Example XVI); assay type: cell-based; settings: Pseudomonas aeruginosa
Source text: as §7

Staphylococcus aureus = assay: MIC, agar dilution method (Example XVI); assay type: cell-based; settings: Staphylococcus aureus
Source text: as §7

Pneumococci = assay: MIC, broth dilution (Examples I/II); assay type: cell-based, pneumococcus (63001); settings: Table 1, Pneumococci
Method: as §1, §2, §3, §4, §5, §6
(§8) The inoculum, 0.05 ml of an 13-24 hour TSB culture (approximately 10^9 organisms/ml) was asceptically delivered into all dilutions of the compounds, mixed well, and incubated at 36° C. A tube of inoculated broth without the compound served as a positive control and an uninoculated set of dilutions incubated along with the test dilutions, served as a negative control.
(§9) In those cases in which the test compound itself caused turbidity, an aliquot (0.015 ml) of the mixed broth was inoculated onto an agar plate and incubated at 36° C for examination, as described in Example I. The control procedure of Example I was also repeated. The lauric, capric, and oleic acids were used as internal controls and for comparison to Example I. The minimal inhibitory concentrations (μmole/ml) for the compounds studied are given in Tables 7 and 8.

Streptococcus Group A = assay: MIC, broth dilution (Examples I/II); assay type: cell-based, beta-hemolytic streptococci Group A
Method: as §1, §2, §3, §4, §5, §6, §8, §9

[2] = system: Streptococcus β-hemolytic Non-A; assay: MIC, broth dilution (Examples I/II); assay type: cell-based, beta-hemolytic streptococci non-group A
Method: as §1, §2, §3, §4, §5, §6, §8, §9

Corynebacteria = assay: MIC, broth dilution (Examples I/II); assay type: cell-based, Corynebacterium sp. (10700)
Method: as §1, §2, §3, §4, §5, §6, §8, §9

Nocardia asteroides = assay: MIC, broth dilution (Examples I/II); assay type: cell-based, Nocardia asteroids (3308)
Method: as §1, §2, §3, §4, §5, §6, §8, §9

Micrococci = assay: MIC, broth dilution (Examples I/II); assay type: cell-based, Micrococcus sp.
Method: as §1, §2, §3, §4, §5, §6, §8, §9

S. aureus = assay: MIC, broth dilution (Examples I/II); assay type: cell-based, Staphylococcus aureus
Method: as §1, §2, §3
One drop (0.04 ± 0.01 ml) of an 18-hr broth culture containing 10^7 and 10^9 organisms/ml was added to each dilution of the test compound, as well as to a tube of plain broth which served as the positive control. […]

Streptococcus Group D = assay: MIC, broth dilution (Examples I/II); assay type: cell-based
Method: as §1, §2, §3, §4, §5, §6, §8, §9

Saccharomyces cerevisiae = assay: MIC, broth dilution (Example II); assay type: cell-based; settings: 18 h, read-out: Inhibitory concentration
Method: as §6, §8
In those cases in which the test compound itself caused turbidity, an aliquot (0.015 ml) of the mixed broth was inoculated onto an agar plate and incubated at 36° C for examination, as described in Example I. The control procedure of Example I was also repeated. […]

E. coli = assay: MIC, broth dilution (Example II); assay type: cell-based, Escherichia coli
Method: Proteus vulgaris, P. mirabilis (14273), P. rettgeri (9250), Escherichia coli, Serratia marcescens (13880), Enterobacter-Klebsiella, Pseudomonas aeruginosa (10145), and Salmonella typhimurium.
as §6
as §8, with “control. […]” for “control.”

gram-negative organisms = assay: Inhibition, broth dilution (Example I); assay type: cell-based
Method: as §1
as §2, with “After sterilization, all tubes were cooled and incubated overnight at 35° C to insure sterility.” left out

gram-positive organisms = assay: Inhibition, broth dilution (Example I); assay type: cell-based; settings: read-out: Inhibitory concentration
Method: as §1
as §2, with “After sterilization, all tubes were cooled and incubated overnight at 35° C to insure sterility.” left out

S. epidermidis = assay: MIC, broth dilution (Examples I/II); assay type: cell-based; settings: Table 7, Staph epider.; > = no inhibition, max. tested
Method: as §1, §2, §3, §4, §5, §6, §8, §9

Sarcina = assay: MIC, broth dilution (Examples I/II); assay type: cell-based, Sarcina lutea (9431); settings: Table 7, Sarcina; > = no inhibition, max. tested
Method: as §1, §2, §3, §4, §5, §6, §8, §9

CCCCCCCCCCCC(=O)OCC(O)CO (stereo not drawn) [1-mono-laurin]
Activity relative to 2-mono-laurin [1]: as active as the 2-mono-laurin | Activity in words ([1]; Table 6 footnote): Highly active on all organisms except streptococcus Group D | Antimicrobial activity in words (growth curve) (S. pyogenes): responsible for all antimicrobial activity | MIC (Aspergillus niger): > 2500 µg/mL | MIC (Bacillus subtilis): 39 µg/mL (≈ 0.142 mM) | MIC (Canadida albicans): > 2500 µg/mL | MIC (Escherichia coli): > 2500 µg/mL | MIC (Pseudomonas aeruginosa): > 2500 µg/mL | MIC (Staphylococcus aureus): 39 µg/mL (≈ 0.142 mM)

CC/C=C\C/C=C\C/C=C\CCCCCCCC(=O)O [Linolenic]
MIC (Pneumococci): 179 µM (≈ 49.8 µg/mL) | MIC (Streptococcus Group A; Table 1, Streptococcus Group A): 350 µM (≈ 97.5 µg/mL) | MIC ([2]; Table 1, Streptococcus β-hemolytic Non-A): 350 µM (≈ 97.5 µg/mL) | MIC (Corynebacteria; Table 1, Corynebacteria): 179 µM (≈ 49.8 µg/mL) | MIC (Nocardia asteroides; Table 1, Nocardia asteroides): 488 µM (≈ 136 µg/mL) | MIC (Micrococci; Table 1, Micrococci): 488 µM (≈ 136 µg/mL) | MIC (S. aureus; Table 1, S. aureus): 1790 µM (≈ 498 µg/mL)

CCCCCCCCCCC(O)C(=O)OC (stereo not drawn) [Methyl, α-hydroxylaurate]
MIC (Streptococcus Group A; Group A Strep, read-out: Inhibitory concentration): 540 µM (≈ 124 µg/mL) | MIC (Nocardia asteroides; Nocardia asteroides, read-out: Inhibitory concentration): 4340 µM (≈ 1000 µg/mL) | MIC (S. aureus; Staphylococcus aureus, S. aureus, read-out: Inhibitory concentration): 540 µM (≈ 124 µg/mL) | Inhibition in words (Streptococcus Group D; Group D Strep): Neither compound was inhibitory | MIC (Saccharomyces cerevisiae): 540 µM (≈ 124 µg/mL) | Inhibition in words (E. coli): Neither compound was inhibitory

CCCCCCCCCCCCOS(=O)(=O)[O-].[Na+] [sodium lauryl sulfate]
Inhibition in words (gram-negative organisms): non-inhibitory | MIC (gram-positive organisms): 3470 µM

Triglycerol monocaprate
MIC (Streptococcus Group A; Table 7, Strep. Grp. A): 150 µM | MIC ([2]; Table 7, Strep. β-hemo. Non-A): 630 µM | MIC (Corynebacteria; Table 7, Cornebacteria): 320 µM | MIC (Micrococci; Table 7, Micrococci): 1260 µM | MIC (S. aureus; Table 7, Staph aureus, > = no inhibition, max. tested): > 2500 µM | MIC (S. epidermidis): > 2500 µM | MIC (Streptococcus Group D; Table 7, Strep. Grp. D, > = no inhibition, max. tested): > 2500 µM | MIC (Sarcina): 2500 µM

glycerol dilaurin
Antimicrobial activity in words (growth curve) (S. pyogenes): essentially inactive

Reference: patent US4067997A, “Synergistic microbecidal composition and method” (priority 1976, dated 1978)
